Experiments:
[1] = test system: U-87MG cells; assay: Immunoblotting of protein expression in peptide-treated cells; type: cell-based, human; conditions: 12 h
Procedure: U-87 MG cells were treated with the indicated concentrations of D-Δ(1-18)N-Ter-Antp peptide in serum-free DMEM for 6 h. Then cells were lysed in lysis buffer (100 mM Tris/HCl pH 8.0, 5% sodium dodecyl sulfate [SDS]), supplemented with a protease inhibitor cocktail (Calbiochem, San Diego, CA, USA). The lysates were vortexed and heated at 70 °C for 10 min. Finally, cell lysates were centrifuged (15,000× g, 10 min at 4 °C), and the protein concentration of the supernatant was determined according to the Lowry assay with a slight modification. Protein samples were stored at −80 °C until subsequent gel electrophoresis. Protein samples (20 μg) were resolved by SDS-polyacrylamide gel electrophoresis and immunoblotted using selected primary antibodies (sources and dilutions are listed in Table S1), followed by incubation with appropriate horseradish peroxidase (HRP)-conjugated secondary antibodies (Table S1). Proteins were detected using the EZ-ECL Enhanced Chemiluminescence Detection Kit (Biological Industries, Beit Haemek, Israel). Band intensities were analyzed with densitometry using FUSION-FX software (Vilber Lourmat, Collegien, France), and the values were normalized to β-actin.
Figure 3 The D-Δ(1-18)N-Ter-Antp peptide induced autophagy and cellular senescence and altered the expression of apoptosis-related proteins. (A,B) U-87MG cells were treated with the indicated concentrations of D-Δ(1-18)N-Ter-Antp peptide for 12 h and then were subjected to immunoblotting for caspase-9, AIF, Bcl-xL, Bcl-2, and Bax and the relative expression level was quantified (B). (C,D) U-87MG cells were treated with the indicated concentrations of D-Δ(1-18)N-Ter-Antp peptide for 12 h and then subjected to immunoblotting for the autophagy markers LC3-I and LC3-II (C) and LC3-II quantification (D). (E,F) U-87MG cells were treated with the indicated concentrations of D-Δ(1-18)N-Ter-Antp peptide for 12 h and then subjected to β-gal activity (blue). Mouse embryonic fibroblast cells at passage 10 (MEF-P10) served as a positive control of senescent cells. Quantification of β-gal staining intensity (F). Data are presented as the mean ± SD, n = 3, * p < 0.05; ** p < 0.01; *** p < 0.001 versus control group. NS, non-specific. The images were captured at 40× and two folds enlargement is shown.
Figure 4 The D-Δ(1-18)N-Ter-Antp induced the altered expression of metabolism and signaling-related proteins. (A,B) U-87MG cells were treated with the indicated concentrations of D-Δ(1-18)N-Ter-Antp peptide at the indicated concentration for 12 h and then subjected to immunoblot analyses of cell lysates for VDAC1, HK-I, ATPsyn5a, and citrate synthase (CS) (A). Quantification of the immunoblot (B). (C–E) Immunoblotting of the indicated proteins c-Jun, NF-κB-p65, p53, CDK2 and IkB-a (C) and their quantitative analysis (D,E). The results were from triplicates of different biological repeats (n = 3) and are presented as the means ± SEM. * p ≤ 0.05; ** p ≤ 0.01; *** p ≤ 0.001.

[2] = target: T1, G-actin (Oryctolagus cuniculus, UniProt P68135); assay: Pyrenyl-actin G-actin polymerization assay; type: biochemical, rabbit; conditions: 16.7 µM peptide, 2 μM MgATP–G-actin with 10% pyrenyl-labeled actin, 22 °C
T1 construct: Actin was purified from rabbit muscle as CaATP–G-actin complex; from tissue; host or cells: rabbit muscle
Procedure: Actin was purified from rabbit muscle as CaATP–G-actin complex according to the published method using Supredex S200 (Cytiva Lifesciences) size exclusion chromatography in a buffer G composed of 5 mM Tris/HCl, pH 7.8, 0.2 mM CaCl2, 0.2 mM ATP, 0.5 mM dithiothreitol, and 0.01% NaN3. The purified G-actin was fluorescently labeled on Cys-374 with N-(1-pyrene) iodoacetamide (Invitrogene) to a molar ratio of 0.8 to 1.0 pyrene/G-actin, as described previously. CaATP–G-actin was converted into MgATP–G-actin by incubation on ice for 20 min with 20 μM MgCl2 and 0.2 mM EGTA to 10 μM and was used within 1 h.
G-actin polymerization was monitored by following the increase in the fluorescence of 10% pyrenyl-labeled actin. […] Fluorescence measurements were carried out at 22 °C in a Horiba/Jobin Yvon FluoroLog Spectrofluorometer using excitation and emission wavelengths of 365 and 407 nm, respectively. Data were analyzed using GraphPad Prism4.1.681 for Windows software (San Diego, CA, USA).
Figure 5 D-Δ(1-18)N-Ter-Antp altered actin filament organization (A,B) U-87MG cells were cultured and incubated for 24 h with D-Δ(1-18)N-Ter-Antp (10 µM). Cells were stained for actin using Phalloidin-488 and visualized by confocal microscopy (A) and quantified for Phalloidin-488 staining intensity (B). […] (D) Actin interaction with VDAC1 analyzed using the MST method. […]

[3] = immunoblot normalized to β-actin, n = 3

In the case of “19-FTKGYGFGL-26- RQIKIWFQNRRMKWKK [D-Δ(1-18)N-Ter-Antp]”, the “Autophagy, appearance of LC3-II” value ([1]; immunoblot for LC3-I and LC3-II) is reported as “induced”, the “Decrease of expression of IκBα” value [1, 3] is reported as 2 fold and the “Decrease of expression of cyclin-dependent kinase 2 (CDK-2)” value [1, 3] is reported as 2 fold. For the same substance, the “Enhanced expression of c-Jun” value [1, 3] was 6 fold, the “Enhanced expression of nuclear factor kappa B (NF-κB p65)” value [1, 3] was 3.5 fold and the “Enhanced expression of p53” value [1, 3] was 3 fold. The “Effect on G-actin polymerization” value [2] was “inhibition of the actin filament assembly”.
